Experimental data reported in patent US20240358692A1, “TREATMENT OF SCLERODERMA” (Aisa Pharma, Inc., priority 2023, published 2024).

How the values were obtained:
participants with SSc-RP [1] = test: SHAQ - Alternative Disability Index; format: in vivo, human
Source text: The SHAQ is used to calculate a Disability Index to assess the participant qualify of life. The eight categories assessed by the Disability Index are 1) dressing and grooming, 2) arising, 3) eating, 4) walking, 5) hygiene, 6) reach, 7) grip, and 8) common daily activities. For each of these categories, patients report the amount of difficulty they have in performing two or three specific activities.
There are four possible responses for the Disability Index questions: • Without any difficulty=0 • With some difficulty=1 • With much difficulty=2 • Unable to do=3 • The highest score reported by the patient for any component question of the eight categories determines the score for that category. • If a component question is left blank or the response is too ambiguous to assign a score, then the score for that category is determined by the remaining completed question(s). • If all component questions are blank or if more than one answer is given, then follow up with the respondent is required. • If the respondent's mark is between the response columns, then move it to the closest one. If it's directly between the two, move it to the higher one.
The aid and device variables are not used to calculate the alternative disability index; it is calculated by adding the scores for each of the categories and dividing by the number of categories answered. This gives a score in the 0 to 3 range.

participants with SSc-RP [2] = test: SHAQ - Visual Analog Scale - Pain; format: in vivo, human
Source text: The standard, validated, patient reported outcome measures tool for SSc patients, the Scleroderma Health Assessment Questionnaire (SHAQ), will be used to assess the participant qualify of life. Details are attached in the Appendix. The participant quality of life will be scored, and a disability index calculated for each questionnaire completed by the patient at Screening and each in-clinic visit. The absolute change in participant quality of life from baseline to the end of each dosing period will be calculated similar to frequency data as before.
The standard, validated, patient reported outcome measures tool for SSc patients, the SHAQ, was collected at the time points specified in the study schedules (FIG. 2 and FIGS. 4A and 4B) to assess the participant's quality of life. The SHAQ included a Raynaud's VAS that will also be reported separately.
Pain on the SHAQ outcome measure on the first line in table F is a composite of all pain experienced in patients with SSc, comprising joint pain, back pain, headache, odynophagia, skin ulcer related discomfort, Raynaud's, and neuropathic pain. Aisa Pharma believes, based on the biologic attributes and actions of cilnidipine that differ from most dihydropyridine calcium channel antagonists that cilnidipine might have direct analgesic effects in certain pain conditions and in fact has been designated to receive evaluation through the […] Preclinical Pain Screening Platform Program to investigate the drug in multiple in vitro and in vivo preclinical models of pain that are validated and predictive of effects in man.

[3] = Modified ITT Population-Part A, Day 12, dose cilnidipine 10 mg, tadalafil 5 mg, alone or combined as labelled
[4] = Modified ITT Population-Part A, dose cilnidipine 10 mg, tadalafil 5 mg, alone or combined as labelled
[5] = Tadalafil 5 mg, SSc patients, PP, Part A

CN1CC(=O)N2[C@H](c3ccc4c(c3)OCO4)c3[nH]c4ccccc4c3C[C@@H]2C1=O [Tadalafil]
alternative disability index, Change from Baseline, Mean (participants with SSc-RP [1]; [3]): −0.094 | alternative disability index, Change from Baseline, Median (participants with SSc-RP [1]; [3]): −0.125 | alternative disability index, Percent Change from Baseline, Mean (participants with SSc-RP [1]; [3]): −43.70% | alternative disability index, Percent Change from Baseline, Median (participants with SSc-RP [1]; [3]): −20.00% | alternative disability index, In Clinic Visit (Day 12), Mean (participants with SSc-RP [1]; [4]): 0.375 | alternative disability index, In Clinic Visit (Day 12), Median (participants with SSc-RP [1]; [4]): 0.250 | SHAQ Alternative Disability Index, Change from Baseline, Max (participants with SSc-RP [1]; [5]): 0.00 | SHAQ Alternative Disability Index, Change from Baseline, Mean (participants with SSc-RP [1]; [5]): −0.094 | SHAQ Alternative Disability Index, Change from Baseline, Median (participants with SSc-RP [1]; [5]): −0.125 | SHAQ Alternative Disability Index, Change from Baseline, Min (participants with SSc-RP [1]; [5]): −0.13, | SHAQ Alternative Disability Index, Change from Baseline, Q3 (participants with SSc-RP [1]; [5]): −0.063 | SHAQ Alternative Disability Index, Day 12, Max (participants with SSc-RP [1]; [5]): 1.00 | SHAQ Alternative Disability Index, Day 12, Mean (participants with SSc-RP [1]; [5]): 0.375 | SHAQ Alternative Disability Index, Day 12, Median (participants with SSc-RP [1]; [5]): 0.250 | SHAQ Alternative Disability Index, Day 12, Min (participants with SSc-RP [1]; [5]): 0.00, | SHAQ Alternative Disability Index, Day 12, Q1 (participants with SSc-RP [1]; [5]): 0.000, | SHAQ Alternative Disability Index, Day 12, Q3 (participants with SSc-RP [1]; [5]): 0.750 | SHAQ Alternative Disability Index, Percent Change from Baseline, Max (participants with SSc-RP [1]; [5]): −11.1 | SHAQ Alternative Disability Index, Percent Change from Baseline, Mean (participants with SSc-RP [1]; [5]): −43.70 | SHAQ Alternative Disability Index, Percent Change from Baseline, Median (participants with SSc-RP [1]; [5]): −20.00 | SHAQ Alternative Disability Index, Percent Change from Baseline, Min (participants with SSc-RP [1]; [5]): −100.0, | SHAQ Alternative Disability Index, Percent Change from Baseline, Q1 (participants with SSc-RP [1]; [5]): −100.00, | SHAQ Alternative Disability Index, Percent Change from Baseline, Q3 (participants with SSc-RP [1]; [5]): −11.11 | Visual Analog Scale-Pain, Change from Baseline, Mean (participants with SSc-RP [2]; [3]): 1.000 | Visual Analog Scale-Pain, Change from Baseline, Median (participants with SSc-RP [2]; [3]): 0.800 | Visual Analog Scale-Pain, In Clinic Visit (Day 12), Mean (participants with SSc-RP [2]; [4]): 5.300 | SHAQ VAS Pain, Change from Baseline, Max (participants with SSc-RP [2]; [5]): 1.50 | SHAQ VAS Pain, Change from Baseline, Mean (participants with SSc-RP [2]; [5]): 1.000 | SHAQ VAS Pain, Change from Baseline, Median (participants with SSc-RP [2]; [5]): 0.800 | SHAQ VAS Pain, Change from Baseline, Min (participants with SSc-RP [2]; [5]): 0.70, | SHAQ VAS Pain, Change from Baseline, Q1 (participants with SSc-RP [2]; [5]): 0.700, | SHAQ VAS Pain, Change from Baseline, Q3 (participants with SSc-RP [2]; [5]): 1.500 | SHAQ VAS Pain, Day 12, Max (participants with SSc-RP [2]; [5]): 9.20 | SHAQ VAS Pain, Day 12, Mean (participants with SSc-RP [2]; [5]): 5.300 | SHAQ VAS Pain, Day 12, Median (participants with SSc-RP [2]; [5]): 5.850 | SHAQ VAS Pain, Day 12, Min (participants with SSc-RP [2]; [5]): 0.30, | SHAQ VAS Pain, Day 12, Q1 (participants with SSc-RP [2]; [5]): 1.900, | SHAQ VAS Pain, Day 12, Q3 (participants with SSc-RP [2]; [5]): 8.700 | SHAQ VAS Pain, Percent Change from Baseline, Max (participants with SSc-RP [2]; [5]): 75.0 | SHAQ VAS Pain, Percent Change from Baseline, Mean (participants with SSc-RP [2]; [5]): 31.35 | SHAQ VAS Pain, Percent Change from Baseline, Median (participants with SSc-RP [2]; [5]): 10.81 | SHAQ VAS Pain, Percent Change from Baseline, Min (participants with SSc-RP [2]; [5]): 8.2, | SHAQ VAS Pain, Percent Change from Baseline, Q1 (participants with SSc-RP [2]; [5]): 8.24, | SHAQ VAS Pain, Percent Change from Baseline, Q3 (participants with SSc-RP [2]; [5]): 75.00
